Experimental data: ChEMBL document CHEMBL3886310, “Pyrrolidine derivatives, pharmaceutical compositions and uses thereof” (2015)

Molecular target: Acetyl-CoA carboxylase 2 (Homo sapiens, UniProt O00763)
Assay: Spectrophotometric 384 Well Assay: Assay reactions are then carried out in 384-well plates, with hACC2 in an appropriate dilution and at final assay concentrations (f.c.) of 100 mM Tris (pH 7.5), 10 mM trisodium citrate, 25 mM KHCO3, 10 mM MgCl2, 0.5 mg/ml BSA, 3.75 mM reduced L-glutathione, 15 U/ml lactate dehydrogenase, 0.5 mM phosphoenolpyruvate, 15 U/ml pyruvate kinase, compounds at different concentrations at final DMSO concentrations of 1%.The enzymatic reaction is then started by addition of a mixture of NADH, acetyl Coenzyme A (both 200 μM f.c.) and ATP (500 uM f.c.). The decrease of the optical density (slope S) is then determined at 25° C. at a wavelength of 340 nm over 15 minutes in a spectrophotometric reader.

Acetyl-CoA carboxylase 2, sequence (O00763 whole entry): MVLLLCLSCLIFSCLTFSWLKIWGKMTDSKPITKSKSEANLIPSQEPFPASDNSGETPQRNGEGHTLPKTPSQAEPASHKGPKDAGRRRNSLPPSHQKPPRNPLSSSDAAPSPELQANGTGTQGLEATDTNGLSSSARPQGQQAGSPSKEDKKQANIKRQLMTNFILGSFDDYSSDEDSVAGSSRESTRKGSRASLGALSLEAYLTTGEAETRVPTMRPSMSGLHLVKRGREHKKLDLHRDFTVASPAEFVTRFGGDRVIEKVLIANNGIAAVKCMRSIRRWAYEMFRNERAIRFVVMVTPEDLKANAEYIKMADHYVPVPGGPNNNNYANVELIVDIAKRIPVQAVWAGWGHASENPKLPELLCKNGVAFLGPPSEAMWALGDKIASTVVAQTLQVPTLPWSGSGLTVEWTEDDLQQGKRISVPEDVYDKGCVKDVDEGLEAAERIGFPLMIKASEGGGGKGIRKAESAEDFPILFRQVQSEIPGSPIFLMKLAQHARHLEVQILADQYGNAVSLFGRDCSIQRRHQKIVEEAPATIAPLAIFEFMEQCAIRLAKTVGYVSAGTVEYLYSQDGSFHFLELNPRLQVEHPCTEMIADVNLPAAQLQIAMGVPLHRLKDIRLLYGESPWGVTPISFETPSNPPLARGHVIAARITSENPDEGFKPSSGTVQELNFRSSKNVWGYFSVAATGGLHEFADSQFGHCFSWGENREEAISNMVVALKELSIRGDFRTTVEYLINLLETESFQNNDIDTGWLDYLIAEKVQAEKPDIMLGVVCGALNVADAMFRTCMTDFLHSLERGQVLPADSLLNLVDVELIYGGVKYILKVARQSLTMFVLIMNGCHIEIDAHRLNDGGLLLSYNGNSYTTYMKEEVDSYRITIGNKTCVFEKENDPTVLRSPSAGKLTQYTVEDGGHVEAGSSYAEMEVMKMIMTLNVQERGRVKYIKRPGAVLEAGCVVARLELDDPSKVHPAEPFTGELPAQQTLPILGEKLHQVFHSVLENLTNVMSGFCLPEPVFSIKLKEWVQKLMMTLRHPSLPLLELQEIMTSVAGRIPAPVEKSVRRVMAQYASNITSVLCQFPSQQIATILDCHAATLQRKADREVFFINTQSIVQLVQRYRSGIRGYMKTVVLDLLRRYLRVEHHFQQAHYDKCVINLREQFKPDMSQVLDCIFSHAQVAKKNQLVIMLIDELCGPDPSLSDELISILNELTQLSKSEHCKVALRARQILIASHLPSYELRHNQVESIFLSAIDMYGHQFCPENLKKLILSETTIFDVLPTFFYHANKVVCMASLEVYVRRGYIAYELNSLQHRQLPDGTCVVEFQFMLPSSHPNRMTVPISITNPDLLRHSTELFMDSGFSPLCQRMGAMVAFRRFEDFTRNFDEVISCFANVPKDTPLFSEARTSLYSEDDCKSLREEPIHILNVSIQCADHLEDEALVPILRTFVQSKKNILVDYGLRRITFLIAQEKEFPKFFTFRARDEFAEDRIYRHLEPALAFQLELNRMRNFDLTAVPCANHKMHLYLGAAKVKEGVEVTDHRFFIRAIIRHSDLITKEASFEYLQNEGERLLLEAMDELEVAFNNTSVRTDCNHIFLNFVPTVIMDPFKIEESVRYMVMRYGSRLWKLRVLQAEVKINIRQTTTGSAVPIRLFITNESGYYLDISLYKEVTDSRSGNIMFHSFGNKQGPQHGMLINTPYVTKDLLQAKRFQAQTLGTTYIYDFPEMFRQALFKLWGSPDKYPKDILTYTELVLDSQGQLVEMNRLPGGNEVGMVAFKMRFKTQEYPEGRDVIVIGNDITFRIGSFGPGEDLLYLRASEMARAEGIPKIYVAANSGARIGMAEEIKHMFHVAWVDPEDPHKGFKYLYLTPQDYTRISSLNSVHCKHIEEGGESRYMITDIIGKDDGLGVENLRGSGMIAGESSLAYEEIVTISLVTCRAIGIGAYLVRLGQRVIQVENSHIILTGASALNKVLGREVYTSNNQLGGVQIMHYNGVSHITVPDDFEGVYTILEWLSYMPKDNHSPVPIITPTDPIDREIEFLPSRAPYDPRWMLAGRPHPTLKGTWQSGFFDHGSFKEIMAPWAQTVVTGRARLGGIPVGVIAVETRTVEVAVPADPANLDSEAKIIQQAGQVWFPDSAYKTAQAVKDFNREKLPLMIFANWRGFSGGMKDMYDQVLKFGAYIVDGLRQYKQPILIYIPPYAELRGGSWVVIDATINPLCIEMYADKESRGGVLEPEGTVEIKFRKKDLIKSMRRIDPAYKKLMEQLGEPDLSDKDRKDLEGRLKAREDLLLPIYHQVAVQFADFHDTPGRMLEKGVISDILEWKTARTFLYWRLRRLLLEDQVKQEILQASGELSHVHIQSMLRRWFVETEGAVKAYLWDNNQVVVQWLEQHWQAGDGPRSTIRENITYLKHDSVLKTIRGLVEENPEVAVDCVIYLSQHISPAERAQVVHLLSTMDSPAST

IC50 [nM]	SMILES
1360	COC(=O)N[C@@H](C)c1ccc(OC2CCN(c3ccc(OC(C)C)cc3)C2)cc1 (some centres not stated)
16	C[C@H](NC(=O)c1cn[nH]c1)c1ccc(O[C@@H]2CCN(c3ccc(OCC4CC4)cc3)C2)cc1
